# Measured values from ChEMBL document CHEMBL3885861, “Open TG-GATES”.
# Species on record: Rattus norvegicus
# Assay: Open TG-GATES - Regimen: Daily Repeat
# Assay type: toxicity, organism-based, Sprague-Dawley
# Set-up: regimen Daily Repeat, gender Male, age 6 weeks
# Settings: in vivo, iv, route intravenous injection; for APTT / Bas / Eos / Fbg / Ht / Lym / MCH / MCHC / MCV / Mono / Neu / PT / Plat / RBC / Ret / WBC / Hb: tissue Blood; for KIDNEY_L / KIDNEY_R / KIDNEY_TOTAL: tissue Kidney; for LIVER: tissue Liver
# [1] = 0 mg/kg, 72 h, dose level Control, time 3 day
# [2] = 0 mg/kg, 72 h, tissue Plasma, dose level Control, time 3 day
# [3] = 0 mg/kg, […], dose level Control, time 7 day
# [4] = 0 mg/kg, […], dose level Control, time 14 day
# [5] = 0 mg/kg, […], dose level Control, time 28 day
# [6] = 0 mg/kg, […], tissue Plasma, dose level Control, time 7 day
# [7] = 0 mg/kg, […], tissue Plasma, dose level Control, time 14 day
# [8] = 0 mg/kg, […], tissue Plasma, dose level Control, time 28 day
# [9] = 10 mg/kg, 72 h, dose level Low, time 3 day
# [10] = 10 mg/kg, 72 h, tissue Plasma, dose level Low, time 3 day
# [11] = 10 mg/kg, […], dose level Low, time 7 day
# [12] = 10 mg/kg, […], dose level Low, time 14 day
# [13] = 10 mg/kg, […], dose level Low, time 28 day
# [14] = 10 mg/kg, […], tissue Plasma, dose level Low, time 7 day
# [15] = 10 mg/kg, […], tissue Plasma, dose level Low, time 14 day
# [16] = 10 mg/kg, […], tissue Plasma, dose level Low, time 28 day
sequence,measurement,setting,value
GENTAMICIN,TERMINAL_BW,[1],231.1 g
same,APTT,[1],23.2 s
same,Bas,[1],0%
same,Eos,[1],1%
same,Fbg,[1],286.6 mg/dL
same,Ht,[1],37.6%
same,Lym,[1],72.8%
same,MCH,[1],21.1 pg
same,MCHC,[1],34.9%
same,MCV,[1],60.6 fL
same,Mono,[1],3.2%
same,Neu,[1],21.6%
same,PT,[1],16.9 s
same,Plat,[1],119.1 x10_4/uL
same,RBC,[1],621 x10_4/ul
same,Ret,[1],5.8%
same,WBC,[1],105.4 x10_2/uL
same,KIDNEY_L,[1],1.1 g
same,KIDNEY_R,[1],1 g
same,KIDNEY_TOTAL,[1],2.1 g
same,ALP,[2],1838 IU/L
same,ALT,[2],41.8 IU/L
same,AST,[2],70.2 IU/L
same,BUN,[2],16.2 mg/dL
same,CRE,[2],0.2 mg/dL
same,DBIL,[2],0 mg/dL
same,IP,[2],6.9 mg/dL
same,K,[2],4.5 meq/L
same,LDH,[2],157.2 IU/L
same,Na,[2],139.6 meq/L
same,PL,[2],147.8 mg/dL
same,RALB,[2],3 g/dL
same,TBIL,[2],0.006 mg/dL
same,TC,[2],72.8 mg/dL
same,TG,[2],107.6 mg/dL
same,TP,[2],5.5 g/dL
same,gamma-GTP,[2],1.6 IU/L
same,TERMINAL_BW,[3],261.2 g
same,TERMINAL_BW,[4],307.6 g
same,TERMINAL_BW,[5],392.7 g
same,APTT,[3],22.1 s
same,Bas,[3],0%
same,Eos,[3],0.8%
same,Fbg,[3],273.2 mg/dL
same,Ht,[3],37.1%
same,Lym,[3],80%
same,MCH,[3],20.6 pg
same,MCV,[3],58.5 fL
same,Mono,[3],3%
same,Neu,[3],15.5%
same,PT,[3],16 s
same,Plat,[3],118.1 x10_4/uL
same,RBC,[3],636.2 x10_4/ul
same,Ret,[3],4.1%
same,WBC,[3],124.9 x10_2/uL
same,APTT,[4],23 s
same,Bas,[4],0%
same,Eos,[4],0.8%
same,Fbg,[4],267.8 mg/dL
same,Ht,[4],40.2%
same,Lym,[4],78%
same,MCH,[4],21 pg
same,MCHC,[4],35.7%
same,MCV,[4],58.8 fL
same,Mono,[4],2.6%
same,Neu,[4],17.6%
same,PT,[4],16.2 s
same,Plat,[4],123.5 x10_4/uL
same,RBC,[4],684.8 x10_4/ul
same,Ret,[4],4%
same,WBC,[4],103.9 x10_2/uL
same,APTT,[5],24.6 s
same,Bas,[5],0%
same,Eos,[5],1.2%
same,Fbg,[5],290.2 mg/dL
same,Hb,[5],15.4 g/dL
same,Ht,[5],43.3%
same,Lym,[5],83%
same,MCHC,[5],35.5%
same,MCV,[5],57.6 fL
same,Mono,[5],2%
same,Plat,[5],102.2 x10_4/uL
same,RBC,[5],752 x10_4/ul
same,Ret,[5],2.3%
same,WBC,[5],107.5 x10_2/uL
same,KIDNEY_L,[3],1.1 g
same,KIDNEY_R,[3],1.1 g
same,KIDNEY_TOTAL,[3],2.2 g
same,KIDNEY_L,[4],1.2 g
same,KIDNEY_R,[4],1.2 g
same,KIDNEY_TOTAL,[4],2.4 g
same,KIDNEY_L,[5],1.4 g
same,KIDNEY_R,[5],1.3 g
same,KIDNEY_TOTAL,[5],2.7 g
same,LIVER,[5],15.2 g
same,ALP,[6],1702.5 IU/L
same,ALT,[6],40.5 IU/L
same,AST,[6],72.2 IU/L
same,BUN,[6],17 mg/dL
same,CRE,[6],0.2 mg/dL
same,DBIL,[6],0 mg/dL
same,GLC,[6],214 mg/dL
same,IP,[6],6.8 mg/dL
same,K,[6],4.4 meq/L
same,LDH,[6],207.2 IU/L
same,PL,[6],135.2 mg/dL
same,RALB,[6],2.9 g/dL
same,TBIL,[6],0.005 mg/dL
same,TC,[6],68.5 mg/dL
same,TG,[6],94.5 mg/dL
same,TP,[6],5.4 g/dL
same,gamma-GTP,[6],1.5 IU/L
same,ALP,[7],1249.2 IU/L
same,ALT,[7],33.4 IU/L
same,AST,[7],61.6 IU/L
same,CRE,[7],0.2 mg/dL
same,DBIL,[7],0 mg/dL
same,GLC,[7],198.6 mg/dL
same,IP,[7],7 mg/dL
same,K,[7],4.7 meq/L
same,PL,[7],140.8 mg/dL
same,RALB,[7],3 g/dL
same,TBIL,[7],0.002 mg/dL
same,TC,[7],63.2 mg/dL
same,TG,[7],154 mg/dL
same,TP,[7],5.6 g/dL
same,gamma-GTP,[7],2 IU/L
same,ALP,[8],976 IU/L
same,ALT,[8],34.8 IU/L
same,AST,[8],58.8 IU/L
same,BUN,[8],18.2 mg/dL
same,CRE,[8],0.2 mg/dL
same,DBIL,[8],0 mg/dL
same,GLC,[8],190.8 mg/dL
same,IP,[8],6.5 mg/dL
same,K,[8],4.1 meq/L
same,LDH,[8],115.4 IU/L
same,PL,[8],135.6 mg/dL
same,RALB,[8],3 g/dL
same,TBIL,[8],0.004 mg/dL
same,TG,[8],101 mg/dL
same,TP,[8],6 g/dL
same,gamma-GTP,[8],2.4 IU/L
same,TERMINAL_BW,[9],228.4 g
same,Bas,[9],0%
same,Eos,[9],0.8%
same,Fbg,[9],300.8 mg/dL
same,Ht,[9],38.3%
same,Lym,[9],71.8%
same,MCHC,[9],34.8%
same,MCV,[9],59.9 fL
same,Mono,[9],3.8%
same,Neu,[9],22%
same,PT,[9],17 s
same,Plat,[9],124.4 x10_4/uL
same,RBC,[9],640 x10_4/ul
same,Ret,[9],5.2%
same,WBC,[9],102 x10_2/uL
same,KIDNEY_L,[9],1 g
same,KIDNEY_R,[9],1 g
same,KIDNEY_TOTAL,[9],2 g
same,LIVER,[9],10.2 g
same,AST,[10],71.8 IU/L
same,BUN,[10],18.2 mg/dL
same,CRE,[10],0.2 mg/dL
same,DBIL,[10],0 mg/dL
same,GLC,[10],174.6 mg/dL
same,IP,[10],6.6 mg/dL
same,K,[10],4.5 meq/L
same,LDH,[10],157.2 IU/L
same,PL,[10],131.2 mg/dL
same,RALB,[10],3 g/dL
same,TBIL,[10],0.012 mg/dL
same,TC,[10],66.4 mg/dL
same,TG,[10],84.6 mg/dL
same,TP,[10],5.5 g/dL
same,gamma-GTP,[10],1.4 IU/L
same,TERMINAL_BW,[11],260.4 g
same,TERMINAL_BW,[12],320 g
same,TERMINAL_BW,[13],376.9 g
same,APTT,[11],22.1 s
same,Bas,[11],0%
same,Eos,[11],1.4%
same,Fbg,[11],290 mg/dL
same,Hb,[11],13.7 g/dL
same,Ht,[11],40%
same,Lym,[11],75.8%
same,MCHC,[11],34.4%
same,MCV,[11],60.6 fL
same,Mono,[11],2.6%
same,Plat,[11],122 x10_4/uL
same,RBC,[11],660.6 x10_4/ul
same,Ret,[11],4.7%
same,WBC,[11],106.3 x10_2/uL
same,APTT,[12],22.5 s
same,Bas,[12],0%
same,Eos,[12],1%
same,Fbg,[12],298.2 mg/dL
same,Hb,[12],14.1 g/dL
same,Ht,[12],39.7%
same,Lym,[12],75.8%
same,MCH,[12],20.6 pg
same,MCHC,[12],35.5%
same,MCV,[12],58.2 fL
same,Mono,[12],2.8%
same,Neu,[12],18.8%
same,PT,[12],16.5 s
same,Plat,[12],124.8 x10_4/uL
same,RBC,[12],683 x10_4/ul
same,Ret,[12],4.4%
same,WBC,[12],118.2 x10_2/uL
same,APTT,[13],25.6 s
same,Bas,[13],0%
same,Eos,[13],1.6%
same,Fbg,[13],309.2 mg/dL
same,Ht,[13],43.2%
same,MCHC,[13],36.1%
same,MCV,[13],53.9 fL
same,Mono,[13],2%
same,Neu,[13],16.4%
same,PT,[13],16.5 s
same,Plat,[13],112.8 x10_4/uL
same,RBC,[13],803.4 x10_4/ul
same,Ret,[13],1.9%
same,WBC,[13],114.2 x10_2/uL
same,KIDNEY_L,[11],1 g
same,KIDNEY_R,[11],1 g
same,KIDNEY_TOTAL,[11],2.1 g
same,KIDNEY_L,[12],1.3 g
same,KIDNEY_R,[12],1.3 g
same,KIDNEY_TOTAL,[12],2.6 g
same,KIDNEY_L,[13],1.4 g
same,KIDNEY_R,[13],1.4 g
same,KIDNEY_TOTAL,[13],2.7 g
same,LIVER,[12],13.6 g
same,LIVER,[13],13.7 g
same,ALP,[14],1411.6 IU/L
same,ALT,[14],40.2 IU/L
same,AST,[14],73 IU/L
same,BUN,[14],18.2 mg/dL
same,CRE,[14],0.2 mg/dL
same,DBIL,[14],0 mg/dL
same,GLC,[14],188.6 mg/dL
same,IP,[14],6.5 mg/dL
same,K,[14],4.3 meq/L
same,LDH,[14],203.6 IU/L
same,PL,[14],146.8 mg/dL
same,RALB,[14],3 g/dL
same,TBIL,[14],0.008 mg/dL
same,TC,[14],70.4 mg/dL
same,TG,[14],121.8 mg/dL
same,TP,[14],5.5 g/dL
same,gamma-GTP,[14],1.2 IU/L
same,ALP,[15],1519.6 IU/L
same,ALT,[15],37 IU/L
same,AST,[15],65.4 IU/L
same,CRE,[15],0.2 mg/dL
same,DBIL,[15],0 mg/dL
same,GLC,[15],186.6 mg/dL
same,IP,[15],6.3 mg/dL
same,K,[15],4.4 meq/L
same,LDH,[15],131.2 IU/L
same,RALB,[15],3.1 g/dL
same,TBIL,[15],0.006 mg/dL
same,TC,[15],61.8 mg/dL
same,TG,[15],152 mg/dL
same,TP,[15],5.8 g/dL
same,gamma-GTP,[15],1.8 IU/L
same,AST,[16],66 IU/L
same,CRE,[16],0.2 mg/dL
same,DBIL,[16],0 mg/dL
same,GLC,[16],176 mg/dL
same,IP,[16],5.8 mg/dL
same,K,[16],4.1 meq/L
same,LDH,[16],137.2 IU/L
same,PL,[16],132 mg/dL
same,RALB,[16],3.1 g/dL
same,TBIL,[16],0.004 mg/dL
same,TC,[16],67.4 mg/dL
same,TG,[16],113.6 mg/dL
same,TP,[16],6.1 g/dL
